Data on two compounds can be found in publication PMC8347595, “N-Skatyltryptamines—Dual 5-HT6R/D2R Ligands with Antipsychotic and Procognitive Potential” (Molecules, 2021).

For one series, the target named is T1, CYP3A4 (Homo sapiens, UniProt P08684).
T1 construct: purchased Promega (Madison, WI, USA)
The series can be described thus: CYP3A4 P450-Glo luminescent assay. Type of series: in vitro ADME. The conditions noted are these: compared to ketoconazole; 0.01 to 25 µM. As for the experimental part:
The experiments were provided using commercially available luminescent CYP3A4 P450-Glo™ and CYP2D6 P450-Glo™ tests purchased from Promega (Madison, WI, USA). The enzymatic reactions were conducted in polystyrene, flat-bottom Nunc™ MicroWell™ 96-well microplates (Thermo Scientific, Waltham, MA, USA). The assays were carried out according to the procedures provided by the manufacturer, as described previously. Compounds were tested in triplicate at the final concentrations in a range from 0.01 to 25 µM for both isoforms of CYP450. The references of CYP3A4 and CYP2D6 inhibitors (ketoconazole and quinidine, respectively) were tested in a range from 0.001 to 10 µM. Tested compounds were incubated in 100 mM Tris-HCl buffer separately with CYP3A4 and CYP2D6 membranes and the NADPH Regeneration System for 30 min at room temperature in triplicate. The bioluminescent signal was measured after the addition of the Luciferin Detection Reagent by using a microplate reader EnSpire PerkinElmer (Waltham, MA, USA). Both reagents (NADPH Regeneration System and Luciferin Detection Reagent) were purchased from Promega (Madison, WI, USA).

A further series addresses 5-HT2AR (Homo sapiens, UniProt P28223). The series can be described thus: Radioligand binding assay, [3H]-ketanserin displacement. Also on record: host or cells: CHO-K1; membrane preparation. The conditions noted are these: Table 1.
For a further series, the target named is T2, 5-HT1AR (Homo sapiens, UniProt P08908).
T2 sequence (P08908 1-422): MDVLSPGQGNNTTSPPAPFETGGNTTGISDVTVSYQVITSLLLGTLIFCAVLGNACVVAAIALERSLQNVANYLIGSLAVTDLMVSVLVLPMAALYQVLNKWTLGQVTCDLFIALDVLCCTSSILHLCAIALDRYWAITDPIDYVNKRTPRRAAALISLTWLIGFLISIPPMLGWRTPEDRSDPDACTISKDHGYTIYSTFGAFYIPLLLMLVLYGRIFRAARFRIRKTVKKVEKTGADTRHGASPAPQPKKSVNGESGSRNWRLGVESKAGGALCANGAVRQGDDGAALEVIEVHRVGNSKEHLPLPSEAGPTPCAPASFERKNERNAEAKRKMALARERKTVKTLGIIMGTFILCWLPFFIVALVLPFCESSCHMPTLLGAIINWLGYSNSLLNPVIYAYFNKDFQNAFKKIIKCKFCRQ
The series can be described thus: Radioligand binding assay, [3H]-8-OH-DPAT displacement.

Another series has as its target 5-HT7R (Homo sapiens, UniProt P34969). The series can be described thus: Radioligand binding assay, [3H]-5-CT displacement.
A further series relates to Male CD1 mice. The series can be described thus: Novel object recognition (NOR) test, MK-801-induced memory impairment. It is filed as in vivo. Conditions: i.p., MK-801 0.3 mg/kg. As for the experimental part: Animals. Male CD1 mice (Charles River, Germany) weighing 20–25 g at the time of arrival were used in behavioral experiments. Animals were kept under standard laboratory conditions (12:12 light: dark cycle, 22 ± 2 °C) with free access to food and water. Animal welfare has been regularly controlled by a veterinarian and animal welfare committee. After two weeks of acclimatization and handling, the experiments began. Experimental groups consisted of four to 10 animals, depending on the procedure. Drugs were administered intraperitoneally (i.p.) at a volume of 10 mL/kg. Experimental assessments were performed by an observer who was blinded to the treatment conditions. All procedures were conducted in accordance with the European Communities Council Directive of 22 September 2010 (2010/63/EU) and Polish legislation acts concerning animal experimentation and were approved by the II Local Ethics Committee by the Maj Institute of Pharmacology, Polish Academy of Sciences in Krakow (272/2019).
Drugs. MK-801 was purchased from Tocris Bioscience, Bristol, UK. MK-801 was dissolved in 0.9% NaCl. Compounds 15 and 18 were dissolved in 0.9% NaCl. All compounds were administered intraperitoneally (i.p.) in a volume of 10 mL/kg. Vehicle-treated animals received appropriate solvents. Vehicle was administered to animals in any case when drug administration was omitted (e.g., control or MK-801-treated groups).
This procedure was adapted from Nilsson et al. (2007) and performed as described in a previous paper by Cieslik et al. (2018). Habituation, training, and test trials were performed in a black plastic rectangular arena (40 × 30 × 35 cm) illuminated with a light intensity of 335 lux. During the habituation trial (two consecutive days), each animal was allowed to explore the arena for 10 min. The next day, during the training trial (T1), mice were placed in the arena and presented with two identical objects (red glass cylinder; 6.5 cm in diameter and 4.5 cm high) for 5 min. After 1 h, animals were placed back into the arena for a 5 min test trial, during which one of the previously presented familiar objects was replaced with a novel object (a transparent glass elongated sphere-like object with an orange cap; 5.5 cm in diameter and 8.5 cm high). Time spent exploring (i.e., sniffing or touching) the familiar (Tfamiliar) and novel (Tnovel) objects was measured by a trained observer, and the recognition index [%] was calculated for each mouse [(Tnovel − Tfamiliar)/(Tfamiliar + Tnovel)] × 100. Compounds were administered 30 min before MK-801 (0.3 mg/kg), which was administered 30 min before training trial.

The next series relates to HepG2 cell line. The series can be described thus: Hepatotoxicity assay, HepG2 viability. Type of series: cell-based. Conditions: 1 μM, 72 h. As for the experimental part:
To estimate the hepatotoxicity of compounds, the hepatoma HepG2 (ATCC® HB-8065TM) cell line was used according to previously described protocols. The CellTiter 96® AQueous Non-Radioactive Cell Proliferation Assay was obtained from Promega (Madison, WI, USA). The compounds were tested in quadruplicate at four concentrations (1–100 µM) for 72 h.

For the next series, the target named is 5-HT6R (Homo sapiens, UniProt P50406). The series can be described thus: Radioligand binding assay, [3H]-LSD displacement.
Series [1] can be described thus: Metabolic stability, incubation with mouse liver microsomes. Type of series: in vitro ADME. Conditions: MLMs, 50 µM, 2 h. The protocol: The murine liver microsomes (MLMs) were purchased from Sigma-Aldrich (St. Louis, MO, USA). To determine metabolic pathways, the tested compounds (50 µM) were incubated with 100 mM Tris-HCl buffer at 37 °C with MLMs (1 mg/mL) and NADPH Regeneration System for 2 h. Reactions were quenched with cold, pure methanol and mixtures were centrifuged 14,000 g for 15 min. The supernatants were analyzed using LCMS. The additional MS ion fragmentation of the product and the substrate were performed to determine the most probable structure of the metabolite.

Read-outs that look alike come from different tables or passages of the source.

5-HT6R, sequence (P50406 whole entry, the tested form may be a part): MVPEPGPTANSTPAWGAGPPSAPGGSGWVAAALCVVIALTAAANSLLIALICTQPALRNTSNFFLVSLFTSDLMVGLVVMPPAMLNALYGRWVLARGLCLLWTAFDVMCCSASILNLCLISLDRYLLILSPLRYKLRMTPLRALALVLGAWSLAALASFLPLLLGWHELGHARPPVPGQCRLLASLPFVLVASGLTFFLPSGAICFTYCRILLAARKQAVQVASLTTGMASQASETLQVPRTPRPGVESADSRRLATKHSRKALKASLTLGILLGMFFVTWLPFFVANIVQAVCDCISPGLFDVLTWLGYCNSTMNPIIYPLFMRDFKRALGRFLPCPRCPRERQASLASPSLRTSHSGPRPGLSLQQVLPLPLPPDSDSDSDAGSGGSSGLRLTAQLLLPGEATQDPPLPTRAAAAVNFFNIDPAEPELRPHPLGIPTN
5-HT7R, sequence (P34969 1-432): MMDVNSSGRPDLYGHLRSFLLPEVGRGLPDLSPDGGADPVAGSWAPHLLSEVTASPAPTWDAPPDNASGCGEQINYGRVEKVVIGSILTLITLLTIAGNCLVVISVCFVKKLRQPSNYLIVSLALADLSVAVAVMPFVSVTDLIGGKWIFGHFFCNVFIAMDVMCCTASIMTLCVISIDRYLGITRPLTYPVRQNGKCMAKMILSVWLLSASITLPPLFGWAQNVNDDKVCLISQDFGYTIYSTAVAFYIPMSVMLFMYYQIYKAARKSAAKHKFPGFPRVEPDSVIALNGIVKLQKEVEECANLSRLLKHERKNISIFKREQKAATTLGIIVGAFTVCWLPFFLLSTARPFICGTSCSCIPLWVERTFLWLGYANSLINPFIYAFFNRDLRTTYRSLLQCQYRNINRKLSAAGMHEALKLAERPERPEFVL
T1 sequence (P08684 whole entry): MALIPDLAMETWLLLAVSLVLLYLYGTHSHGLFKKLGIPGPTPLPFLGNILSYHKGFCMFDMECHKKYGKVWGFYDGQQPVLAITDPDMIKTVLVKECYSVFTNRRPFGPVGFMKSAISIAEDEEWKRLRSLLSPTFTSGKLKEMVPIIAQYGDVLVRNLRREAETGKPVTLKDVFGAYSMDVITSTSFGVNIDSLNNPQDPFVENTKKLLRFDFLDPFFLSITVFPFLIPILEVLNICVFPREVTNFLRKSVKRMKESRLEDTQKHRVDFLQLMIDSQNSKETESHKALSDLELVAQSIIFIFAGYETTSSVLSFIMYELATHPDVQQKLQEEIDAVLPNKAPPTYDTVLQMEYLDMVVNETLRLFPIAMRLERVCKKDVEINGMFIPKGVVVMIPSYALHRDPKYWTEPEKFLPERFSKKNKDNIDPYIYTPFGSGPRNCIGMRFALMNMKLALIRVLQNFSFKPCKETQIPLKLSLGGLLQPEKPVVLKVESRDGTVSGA
5-HT2AR, sequence (P28223 whole entry): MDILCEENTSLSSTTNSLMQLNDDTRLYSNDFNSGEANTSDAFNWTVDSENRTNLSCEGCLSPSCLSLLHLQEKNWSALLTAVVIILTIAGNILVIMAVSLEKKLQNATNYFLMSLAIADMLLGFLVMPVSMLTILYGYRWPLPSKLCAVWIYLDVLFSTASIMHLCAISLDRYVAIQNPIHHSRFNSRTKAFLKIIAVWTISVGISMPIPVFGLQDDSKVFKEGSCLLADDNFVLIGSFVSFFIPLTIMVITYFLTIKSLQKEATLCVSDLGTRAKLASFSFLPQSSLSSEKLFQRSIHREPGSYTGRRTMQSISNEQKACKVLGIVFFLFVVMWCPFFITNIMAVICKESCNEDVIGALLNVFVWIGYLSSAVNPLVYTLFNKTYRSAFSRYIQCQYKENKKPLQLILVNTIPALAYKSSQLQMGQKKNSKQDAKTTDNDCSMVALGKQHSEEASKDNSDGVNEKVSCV

Turning to `Brc1cccc2c(CNCCc3c[nH]c4ccccc34)c[nH]c12` [Compound 18], on CYP3A4, the “effect on CYP3A4 activity” value is listed as “only slightly inhibited”. In addition, the Ki was 3980 nM at 5-HT2AR (pKi 5-HT2A); 302 nM on 5-HT1AR; 1320 nM at 5-HT7R; 449 nM at 5-HT6R (Ki 5-HT6, Figure 8); 447 nM on 5-HT6R (pKi 5-HT6, Table 1). Moreover, the “reversal of memory impairment induced by MK-801 in NOR test” value in the series with Male CD1 mice (0.1 mg/kg), in the series on Male CD1 mice (0.5 mg/kg) and in the series with Male CD1 mice (1 mg/kg) was “reversed memory impairment” throughout. Moreover, in the series on HepG2 cell line, the “effect on HepG2 proliferation in words” value was “a proliferative effect was observed, but it was not statistically significant”. The “Metabolic Pathway, metabolite M1” value in series [1] was “hydroxylation hydroxylation”. For the same compound, the “Metabolic Pathway, metabolite M2” value in series [1] is on record as “hydroxylation hydroxylation”.
As to `Brc1ccc2c(CNCCc3c[nH]c4ccccc34)c[nH]c2c1` [Compound 15], the “effect on CYP3A4 activity” value on CYP3A4 is “only slightly inhibited”. Besides, the Ki on 5-HT2AR (read-out: pKi 5-HT2A (converted)) was 4070 nM; at 5-HT1AR (pKi 5-HT1A, Table 1), 977 nM; on 5-HT7R it was 4680 nM; at 5-HT6R (Ki 5-HT6, Figure 8), 102 nM; at 5-HT6R (pKi 5-HT6, Table 1), 102 nM. For the same compound, the “reversal of memory impairment induced by MK-801 in NOR test” value in the series with Male CD1 mice (0.5 mg/kg) and in the series on Male CD1 mice (1 mg/kg) was “reversed memory impairment” in each case. Moreover, the “effect on HepG2 proliferation in words” value in the series with HepG2 cell line is on record as “a proliferative effect was observed, but it was not statistically significant”. Further, the “Metabolic Pathway, metabolite M1” value in series [1] is recorded as “hydroxylation hydroxylation”. Also, the “Metabolic Pathway, metabolite M2” value in series [1] is on record as “hydroxylation hydroxylation”.
